Reference: paper PMC10629533, “Structures and membrane interactions of native serotonin transporter in complexes with psychostimulants” (Proceedings of the National Academy of Sciences of the …, 2023)

Biological target: T1, porcine serotonin transporter (pSERT) (Sus scrofa, UniProt F1RN70)
T1 construct: gene SLC6A4; native full-length pSERT from porcine brain; model residues 116-654; with 15B8 Fab
Assay: cryo-EM structure ([…] Å); [3H]paroxetine competition SPA with purified native pSERT
Type: binding

T1 sequence (F1RN70 38-667): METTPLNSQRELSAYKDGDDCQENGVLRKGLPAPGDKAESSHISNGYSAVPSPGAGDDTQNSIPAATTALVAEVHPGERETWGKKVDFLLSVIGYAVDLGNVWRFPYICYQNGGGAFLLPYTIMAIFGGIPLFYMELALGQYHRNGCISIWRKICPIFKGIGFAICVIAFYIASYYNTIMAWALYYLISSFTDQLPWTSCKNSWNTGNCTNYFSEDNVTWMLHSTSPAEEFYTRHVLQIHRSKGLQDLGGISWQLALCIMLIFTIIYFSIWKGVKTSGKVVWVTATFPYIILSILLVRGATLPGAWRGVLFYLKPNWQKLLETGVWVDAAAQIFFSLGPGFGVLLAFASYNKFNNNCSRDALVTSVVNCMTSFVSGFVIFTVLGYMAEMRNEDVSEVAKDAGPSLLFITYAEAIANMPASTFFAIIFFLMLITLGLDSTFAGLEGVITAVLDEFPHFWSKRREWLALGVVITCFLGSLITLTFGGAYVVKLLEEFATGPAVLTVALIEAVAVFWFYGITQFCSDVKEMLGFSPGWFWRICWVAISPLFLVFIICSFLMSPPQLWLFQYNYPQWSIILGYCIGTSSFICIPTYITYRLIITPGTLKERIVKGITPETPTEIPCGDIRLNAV

**Q.** How did the Ki turn out when `CN[C@@H](C)Cc1ccccc1` [(+)-methamphetamine] was run?
**A.** The Ki was 199 ± 103 µM.
